From patent publication EP4775203A1, “VANILLIC ACID DERIVATIVE COMPOUND, THERAPEUTIC AGENT COMPOSITION FOR ALZHEIMER'S DISEASE COMPRISING SAME, AND THERAPEUTIC AGENT COMPOSITION FOR NEUROINFLAMMATION” (Theranocure Co., Ltd., priority 2023, dated 2025)

What was measured:
NF-κB = experiment: Western blot for pNF-κB in LPS-treated cells; assay type: cell-based; details: LPS 1000 ng/mL, 100 µM VD
Procedure: This experiment was conducted to evaluate how VD regulates the NF-κB pathway, which plays a critical role in inflammatory responses. NF-κB is a key transcription factor that regulates inflammatory responses, and when activated within cells, it promotes the expression of inflammatory cytokines. Therefore, inhibition of NF-κB activation may play an important role in suppressing inflammation. CREB acts upstream of the NF-κB pathway, and activation of CREB is associated with inhibition of the NF-κB pathway. Cells were treated with LPS (1000 ng/mL) to activate the NF-κB pathway and induce an inflammatory response, followed by treatment with VD at a concentration of 100 µM. A group treated with both VD and the additive (propylene glycol, PG) was also included for comparison. Western blot analysis was performed to examine the expression of pNF-κB, the activated form of NF-κB, and Lamin B was used as a control for nuclear protein quantification.

[1] = test system: Alzheimer's disease mouse model (5xFAD); experiment: Western blot of hippocampus and cerebral cortex proteins after IV treatment; assay type: in vivo
Procedure: This evaluation example was conducted to assess the effect of VD (vanillic acid-dopamine derivative) on the expression of specific proteins when administered to a 12-month-old Alzheimer's disease mouse model (5xFAD).
A total of 13 twelve-month-old 5xFAD mice were used in this experiment. The experiment was divided into three groups: (1) a normal wild-type group, (2) a dementia-induced group administered saline (5xFAD + saline), and (3) a dementia-induced group administered VD (5xFAD + VD). Each group received intravenous (IV) injections of the respective substance six times over a total period of 20 days. After completion of the treatment, the brains were harvested from the mice, and hippocampal tissue was isolated for further analysis. Protein expression of specific factors was evaluated using the hippocampal tissue. To extract proteins, the tissue was homogenized in RIPA buffer and centrifuged at 13,000 rpm for 15 minutes at 4°C. The supernatant was collected, and protein concentration was measured using a BCA protein assay kit. Equal amounts of protein were loaded onto 8.5% SDS-PAGE gels and transferred to an Immobilon-P membrane. The membranes were blocked with 3% bovine serum albumin (BSA) in Tris-buffered saline containing 0.05% Tween-20 (TBS-T) for 3 hours at room temperature. Thereafter, diluted primary antibodies were incubated overnight at 4°C in 3% BSA. The membranes were washed three times and then incubated with secondary antibodies for 1 hour. Western blot bands were detected using PicoEPD Western Reagent and SuperSignal™ West Femto Maximum Sensitivity Substrate, and images were captured using a chemiluminescent western imaging system. The obtained images were analyzed using ImageJ software.
FIGS. 14 and 15 show Western blot results analyzing changes in protein expression in the hippocampus and cerebral cortex, respectively, after treatment with VD (vanillic acid-dopamine derivative). These experiments were conducted using Alzheimer's disease model mice (5xFAD), and the expression levels of various inflammatory and neurodegeneration-related proteins were compared to evaluate the effect of VD. Both FIGS. 14 and 15 were conducted in two independent sets, with the left panels showing the results of the first set and the right panels showing the results of the second set.
This figure quantitatively evaluates the anti-inflammatory and neuroprotective effects of VD in Alzheimer's disease model mice (5xFAD). For this purpose, VD was administered to dementia model mice at two doses, 2 mg/kg and 4 mg/kg. The inflammatory and neurodegeneration-related factors analyzed in this experiment were as follows. NLRP3 is a protein complex acting as an inflammatory factor that plays an important role in regulating immune responses and inducing inflammation. BACE-1 (Beta-site Amyloid Precursor Protein Cleaving Enzyme 1) is an enzyme that cleaves amyloid precursor protein (APP) to generate β-amyloid. β-amyloid is one of the primary causative substances of Alzheimer's disease, and its accumulation is considered a key pathological feature of the disease. IBA-1 is a marker of microglial activation, indicating activation of microglia, which play a crucial role in immune and inflammatory responses in the brain. GFAP is a marker of astrocyte activation, and increased GFAP expression indicates activation of astrocytes. When astrocytes and microglia are activated, they secrete pro-inflammatory cytokines, thereby promoting inflammatory responses.

TNF-α = experiment: Western blot of pro-inflammatory factors in LPS-treated cells; assay type: cell-based; details: compared to LPS-only treated group
Procedure: (§1) This in vitro experiment was performed to evaluate the ability of VD to suppress inflammatory responses. After extracting proteins from treated cells, the expression levels of inflammatory factors such as IL-6, iNOS, NLRP3, and TNF-α were analyzed by Western blotting. β-actin was used as an internal control for protein quantification. […] Accordingly, it may be concluded that VD affects both inflammatory and pro-inflammatory factors.

IL-6 = experiment: as above; assay type: cell-based; details: compared to LPS-only treated group
Procedure: as §1

iNOS = experiment: as above; assay type: cell-based; details: compared to LPS-only treated group
Procedure: as §1

BV2 cells [2] = experiment: Cell viability assay (CCK-8); assay type: cell-based, mouse; details: VD alone
Procedure: (§2) The cytotoxicity of the synthesized VD was evaluated through a cell viability assay. BV2 cells (normal mouse brain-derived cells) were used. The cells were cultured in a growth medium containing DMEM supplemented with 10% FBS (fetal bovine serum). The medium further contained 1% antibiotic-antimycotic solution, 1% insulin-transferrin-selenium, and 40 ng/mL dexamethasone, and the cells were incubated at 37°C in a humidified atmosphere containing 5% CO2. […] After maintaining the cells under serum-free conditions for 24 hours, subsequent incubation for 48 hours was performed using RPMI 1640 medium containing 10% FBS and […]. Thereafter, fresh complete medium containing Cell Counting Kit-8 (CCK-8) solution was added to the plate and incubated for 3 hours. Cell viability was measured by absorbance at 450 nm using a SpectraMax® i3 (Molecular Devices, CA, U.S.).

[3] = Cell viability assay (CCK-8); assay type: cell-based, mouse; details: mouse, bv2 cells, VD + additive propylene glycol (PG)
Procedure: as §2

NLRP3 = experiment: Western blot of inflammatory factors in LPS-treated cells; assay type: cell-based; details: compared to LPS-only treated group
Procedure: as §1

CREB = experiment: Western blot for CREB / pCREB in LPS-treated cells; assay type: cell-based; details: LPS 1000 ng/mL, 100 µM VD, with or without additive (PG)
Procedure: This experiment was performed to evaluate how VD regulates the CREB factor, which plays an important role in inflammatory signaling pathways. CREB (cAMP response element-binding protein) is a transcription factor that regulates various intracellular signaling pathways. When activated, CREB plays an important role in suppressing the NF-κB pathway. Since NF-κB is one of the major mediators of inflammatory responses, activation of CREB is closely associated with inflammation suppression. After inducing an inflammatory response in cells by treating them with LPS (1000 ng/mL), VD was subsequently administered at concentrations of 10 µM, 50 µM, and 100 µM. A group treated with both VD and the additive (propylene glycol, PG) was also included. Western blot analysis was then performed to examine the expression levels of CREB and its activated form, pCREB. β-actin was used as an internal control for protein quantification.

[4] = biological target: T1, dopamine receptor 1 (D1R) (Mus musculus, UniProt Q61616); experiment: Protein-ligand interaction (CETSA); assay type: binding
T1 construct: endogenous in cells; BV2 inferred
Procedure: (§3) This experiment was conducted to identify the receptor targeted by VD. Dopamine receptors (D1-D5) are present on the membranes of neurons, microglia, and astrocytes. The study aimed to determine through which pathway VD exerts its anti-inflammatory effects. Since dopamine receptors are broadly classified into the D1-like and D2-like families, representative dopamine receptor 1 (D1R) and dopamine receptor 2 (D2R) were evaluated using CETSA.

[5] = biological target: T2, dopamine receptor 2 (D2R) (Mus musculus, UniProt P61168); experiment: Protein-ligand interaction (CETSA); assay type: binding
T2 construct: endogenous in cells; BV2 inferred
Procedure: as §3

BV2 cells [6] = experiment: Nitric oxide (NO) secretion analysis (Griess reagent) after LPS treatment; assay type: cell-based, mouse; details: LPS 2 hours, then VD 12 hours; all tested concentrations (up to 100 µM); compared to LPS-only group
Procedure: This evaluation example was conducted to assess the effect of VD on nitric oxide (NO) secretion. Nitric oxides such as NO are inflammatory mediators that increase during inflammatory responses or infection and serve as important indicators of inflammation severity. By determining whether VD can inhibit NO secretion, the anti-inflammatory effect of VD was evaluated. After stabilizing BV2 cells, the cells were treated with LPS for 2 hours, followed by the addition of VD and incubation for 12 hours. The supernatant was collected from the cultured cells and centrifuged at 5,000 rpm for 2 minutes at 4°C. The analysis was performed using a Griess reagent kit, and the concentration of nitric oxide was calculated by measuring absorbance at 540 nm.

[7] = test system: dementia mouse model (5xFAD); experiment: Water maze experiment (cognitive function); assay type: in vivo
From the text: Latency to Target represents the time required to reach the target platform. As dementia progresses, cognitive function declines, leading to increased latency.
Occupancy in Target Quadrant refers to the extent to which the mice reached or remained in the quadrant containing the target. […] Number of Target Crossings represents the number of times the mice crossed the location of the target platform.

[8] = 2 mg/kg and 4 mg/kg, IV six times over 20 days

T2 sequence (P61168 whole entry): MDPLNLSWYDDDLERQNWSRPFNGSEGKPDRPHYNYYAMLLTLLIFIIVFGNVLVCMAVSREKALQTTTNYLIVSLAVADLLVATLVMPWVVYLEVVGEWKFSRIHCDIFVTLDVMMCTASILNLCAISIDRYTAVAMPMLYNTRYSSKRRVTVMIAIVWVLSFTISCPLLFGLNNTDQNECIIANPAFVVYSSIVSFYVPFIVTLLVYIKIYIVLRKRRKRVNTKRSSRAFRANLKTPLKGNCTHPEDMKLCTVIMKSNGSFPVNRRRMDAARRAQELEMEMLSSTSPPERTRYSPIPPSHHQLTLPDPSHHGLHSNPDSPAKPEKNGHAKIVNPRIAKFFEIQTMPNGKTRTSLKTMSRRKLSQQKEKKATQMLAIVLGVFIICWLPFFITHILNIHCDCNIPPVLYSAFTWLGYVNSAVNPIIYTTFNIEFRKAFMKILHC
T1 sequence (Q61616 whole entry): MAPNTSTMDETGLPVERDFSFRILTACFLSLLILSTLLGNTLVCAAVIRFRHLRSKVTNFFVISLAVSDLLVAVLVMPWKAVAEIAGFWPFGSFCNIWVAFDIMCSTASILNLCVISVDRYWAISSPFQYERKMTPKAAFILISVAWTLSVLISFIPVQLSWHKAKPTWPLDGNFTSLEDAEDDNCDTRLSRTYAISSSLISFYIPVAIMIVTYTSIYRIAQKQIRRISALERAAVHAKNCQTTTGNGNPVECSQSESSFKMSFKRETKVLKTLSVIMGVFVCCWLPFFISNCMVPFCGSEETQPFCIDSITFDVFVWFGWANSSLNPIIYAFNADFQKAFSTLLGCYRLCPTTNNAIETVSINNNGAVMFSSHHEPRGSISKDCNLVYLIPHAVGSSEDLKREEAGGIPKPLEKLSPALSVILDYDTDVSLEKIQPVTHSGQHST

CETSA change in D1R [4]: a change was observed
CETSA change in D2R [5]: no significant change
Structure (SMILES): COc1cc(C(=O)NCCc2ccc(O)c(O)c2)ccc1O [VD]
activation of NF-κB (pNF-κB) (NF-κB): significantly reduced
expression of inflammatory cytokines [1]: reduced
expression of phosphorylated tau [1]: reduced
expression of β-amyloid [1]: reduced
expression of BACE-1 [1, 8]: suppressed
expression of GFAP [1, 8]: suppressed
expression of IBA-1 [1, 8]: suppressed
expression of NLRP3 [1, 8]: suppressed
intensity of TNF-α (TNF-α): same pattern as NLRP3
intensity of IL-6 (IL-6): same pattern as NLRP3
intensity of iNOS (iNOS): same pattern as NLRP3
cell viability (cytotoxicity) (BV2 cells [2]; 0-100 µM): little to no cytotoxicity
cell viability (cytotoxicity) (BV2 cells [2]; 200 µM or more): slight cytotoxicity
viability at 100 µM ([3]; 100 µM): 84.7%
viability at 200 µM ([3]; 200 µM): 60.1%
viability at 400 µM ([3]; 400 µM): 43.1%
intensity of NLRP3 (NLRP3): effectively reduced
pCREB/CREB ratio (CREB): significant increase
NO secretion (BV2 cells [6]): lower NO secretion
Latency to Target ([7]; 4 mg/kg VD-treated group): most significant improvement
Number of Target Crossings ([7]; 4 mg/kg group vs untreated dementia mice): notably higher
Number of Target Crossings ([7]; VD-treated group vs untreated dementia mice): more frequently
Occupancy in Target Quadrant ([7]; VD-treated groups, particularly 4 mg/kg, vs untreated dementia mice): higher occupancy rate
Latency to Target ([7]; VD-treated vs untreated dementia mice): shorter
